Consider one compound from article PMC5575254, “An allosteric ligand-binding site in the extracellular cap of K2P channels” (Nature Communications, 2017).

Positions count from the first letter of the chain named.

Common to all, as to type: cell-based
One assay addresses T1, TRAAK (Homo sapiens, UniProt Q9NYG8).
T1 construct: expressed in transfected cells; host or cells: CHO cells, transient transfection
T1 sequence (Q9NYG8 1-393): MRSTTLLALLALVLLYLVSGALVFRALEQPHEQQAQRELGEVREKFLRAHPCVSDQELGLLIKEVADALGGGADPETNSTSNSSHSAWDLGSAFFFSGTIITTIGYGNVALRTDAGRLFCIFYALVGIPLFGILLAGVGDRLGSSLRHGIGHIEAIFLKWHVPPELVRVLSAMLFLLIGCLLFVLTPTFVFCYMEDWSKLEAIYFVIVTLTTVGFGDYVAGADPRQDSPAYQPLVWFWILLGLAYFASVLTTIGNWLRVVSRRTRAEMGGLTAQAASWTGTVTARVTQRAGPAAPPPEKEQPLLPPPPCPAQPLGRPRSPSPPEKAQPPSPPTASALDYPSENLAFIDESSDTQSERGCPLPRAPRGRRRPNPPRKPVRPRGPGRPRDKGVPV
The assay is described as follows: Whole-cell voltage clamp of CHO cells expressing TRAAK. The settings on record: whole-cell. From the text: (§1) cDNA of the human TREK-1, TREK-2 and TRAAK channels were subcloned into the pEGFPN1 expression vector (Invitrogen), respectively. Mutations were introduced into TREK-1 or TRAAK by PCR using the QuickChange XL sitedirected mutagenesis kit (Agilent Technologies) and were subsequently confirmed by DNA sequencing.
(§2) Chinese hamster ovary (CHO) cells were provided by the Cell Bank of Chinese Academy of Sciences (Shanghai, China). CHO cells were maintained in DMEM/F12 (Gibco) supplemented with 10% fetal bovine serum (Gibco) and 100 μg ml^−1 penicillin-streptomycin (Cellgro) in a humidified incubator at 37 °C (5% CO2). For electrophysiology experiments, cells plated in 35 mm tissue culture dishes (Corning Incorporated) were transiently transfected with the plasmids using PolyJet™ reagent (SignaGen) according to the manufacturer’s instructions. Primers used in this study are listed in Supplementary Table 4.
(§3) All electrophysiological recordings were obtained using patch-clamp recordings in two different configurations: (1) whole cell for macroscopic current dose–response curves; and (2) outside-out and inside-out for macroscopic currents recordings.
(§4) All patch-clamp recordings were conducted 36–96 h after transfection with an Axopatch-200B amplifier (Molecular Devices) at room temperature (23–25 °C). The microelectrodes fashioned from 1.5 mm thin-walled borosilicate glass with filament were pulled from Flaming/Brown type micropipette puller (P-97; SUTTER INSTRUMENT) with the resistances of 3–7 MΩ (whole cell) or 7–15 MΩ (outside-out) when filled with a solution containing (in mM): 140 KCl, 2 MgCl2, 10 EGTA, 1 CaCl2, 10 HEPES (pH 7.3, adjusted with KOH). External solution contained (in mM): 150 NaCl, 5 KCl, 0.5 CaCl2, 1.2 MgCl2, 10 HEPES (pH 7.3, adjusted with NaOH). The current signals were filtered at 1 kHz and digitized at a 10 kHz sampling frequency by using DigiData 1440 A.
Data of whole-cell voltage clamp experiments were fitted using doseResp function. The half inhibition concentrations were derived from fits of the dose–response curves to the function:1 I/I0=A1+A2-A1/1+10^logx0-xP, where I 0 and I are current amplitudes before and after application of inhibitors; A 1 and A 2 are constants between 0 and 1; x is the concentration of inhibitor; x o is the concentration when 50% inhibition was reached (IC50), P is the Hill constant.

The target in assay [1] is T2, mutant TREK-1 channels (Homo sapiens, UniProt O95069, Q120A).
T2 construct: expressed in transfected cells; host or cells: CHO cells, transient transfection
T2 sequence (O95069 1-411 isoform O95069-2 Q105A): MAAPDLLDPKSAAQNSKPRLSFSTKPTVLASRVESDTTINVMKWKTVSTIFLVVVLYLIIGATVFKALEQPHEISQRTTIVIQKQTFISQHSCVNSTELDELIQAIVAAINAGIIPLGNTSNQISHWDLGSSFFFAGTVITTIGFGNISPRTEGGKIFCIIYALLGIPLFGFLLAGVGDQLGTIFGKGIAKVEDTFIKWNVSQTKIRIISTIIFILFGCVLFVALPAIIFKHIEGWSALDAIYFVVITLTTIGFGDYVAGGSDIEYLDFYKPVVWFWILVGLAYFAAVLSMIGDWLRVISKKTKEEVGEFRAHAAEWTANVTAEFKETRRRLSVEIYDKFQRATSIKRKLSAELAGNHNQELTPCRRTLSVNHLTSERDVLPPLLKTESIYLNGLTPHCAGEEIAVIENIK
The assay is described as follows: Whole-cell voltage clamp of mutant TREK-1 channels. Particulars: Q105A mutant.
From the text: as §1, §2, §3, §4
(§5) Data of whole-cell voltage clamp experiments were fitted using doseResp function. […]

For assay [2], the target named is T3, mutant TREK-1 channels (Homo sapiens, UniProt O95069, Q98A).
T3 construct: expressed in transfected cells; host or cells: CHO cells, transient transfection
T3 sequence (O95069 1-411 isoform O95069-2 Q83A): T2 sequence (O95069 1-411 isoform O95069-2 Q105A) with Q83A, A105Q
Put plainly: Whole-cell voltage clamp of mutant TREK-1 channels. Particulars: Q83A mutant.
From the text: as §1, §2, §3, §4, §5

Assay [3] has as its target T4, mutant TREK-1 channels (Homo sapiens, UniProt O95069, T94A).
T4 construct: expressed in transfected cells; host or cells: CHO cells, transient transfection
T4 sequence (O95069 1-411 isoform O95069-2 T79A): T2 sequence (O95069 1-411 isoform O95069-2 Q105A) with T79A, A105Q
Put plainly: Whole-cell voltage clamp of mutant TREK-1 channels. Particulars: T79A mutant.
From the text: as §1, §2, §3, §4, §5

With `CS(=O)(=O)N(CC(=O)N1CCc2ccccc2C1)c1ccc(Cl)cc1` [TKDC, N-(4-cholorphenyl)-N-(2-(3,4-dihydrosioquinolin-2(1H)-yl)-2-oxoethyl)methanesulfonamide], at TRAAK (TRAAK, 300 μM TKDC perfused), the “decrease in the current” value is recorded as ~ 75%. In addition, the IC50 against TRAAK (CHO cells, WT TRAAK, mean ± s.e.m) was found to be 65.9 ± 7 µM; on mutant TREK-1 channels [1] it was 2200 ± 500 nM; on mutant TREK-1 channels [2], 2400 ± 600 nM; on mutant TREK-1 channels [3], 2400 ± 400 nM.

What is called IC50 is the concentration that gives 50% inhibition. Low values mean higher potency, high ones lower potency.
